Laboratory results reported in ChEMBL document CHEMBL1828549, “Novel C-4'' modified azithromycin analogs with remarkably enhanced activity against erythromycin-resistant Streptococcus pneumoniae: the synthesis and antimicrobial evaluation” (2011).
≈ marks a conversion by molar mass, not a printed value.

Legend:
Staphylococcus aureus [1] = assay: Antibacterial activity against penicillin-resistant Staphylococcus aureus by the broth microdilution method; type: functional
Staphylococcus aureus [2] = assay: Antibacterial activity against […] Staphylococcus aureus ATCC 29213 by the broth microdilution method; type: functional
Streptococcus pneumoniae [3] = assay: Antibacterial activity against erythromycin-resistant Streptococcus pneumoniae AB11 expressing erm and mef gene by the broth microdilution method; type: functional
Staphylococcus aureus [4] = assay: Antibacterial activity against erythromycin-susceptible Staphylococcus aureus ATCC 25923 by the broth microdilution method; type: functional
Streptococcus pneumoniae [5] = assay: Ratio of MIC for Streptococcus pneumoniae AB11 expressing erm and mef gene to MIC of reference compound for the same strain
Streptococcus pneumoniae [6] = assay: Ratio of MIC for erythromycin-resistant Streptococcus pneumoniae B1 expressing erm gene to MIC of reference compound for the same strain
Streptococcus pneumoniae [7] = assay: Ratio of erythromycin-A MIC to compound MIC for erythromycin-resistant Streptococcus pneumoniae A22072 expressing mef gene; type: functional
Streptococcus pneumoniae [8] = assay: Antibacterial activity against erythromycin-resistant Streptococcus pneumoniae B1 expressing erm gene by the broth microdilution method; type: functional
Streptococcus pneumoniae [9] = assay: Ratio of azithromycin MIC to compound MIC for erythromycin-resistant Streptococcus pneumoniae A22072 expressing mef gene; type: functional
Streptococcus pneumoniae [10] = assay: Antibacterial activity against erythromycin-resistant Streptococcus pneumoniae A22072 expressing mef gene by the broth microdilution method; type: functional
Streptococcus pneumoniae [11] = assay: Antibacterial activity against erythromycin-susceptible Streptococcus pneumoniae ATCC 49619 by the broth microdilution method; type: functional

SMILES | MIC (Staphylococcus aureus [1]) [µg/mL] | MIC (Staphylococcus aureus [2]) [µg/mL] | MIC (Streptococcus pneumoniae [3]) [µg/mL] | MIC (Staphylococcus aureus [4]) [µg/mL] | Ratio (Streptococcus pneumoniae [5]) | Ratio (Streptococcus pneumoniae [6]) | Ratio (Streptococcus pneumoniae [7]) | MIC (Streptococcus pneumoniae [8]) [µg/mL] | Ratio (Streptococcus pneumoniae [9]) | MIC (Streptococcus pneumoniae [10]) [µg/mL] | MIC (Streptococcus pneumoniae [11]) [µg/mL]
CC[C@H]1OC(=O)[C@H](C)[C@@H](O[C@H]2C[C@@](C)(OC)[C@@H](OC(=O)NNC(=O)c3ccc(C)cc3)[C@H](C)O2)[C@H](C)[C@@H](O[C@@H]2O[C@H](C)C[C@H](N(C)C)[C@H]2O)[C@](C)(O)C[C@@H](C)CN(C)[C@H](C)[C@H]2OC(=O)O[C@@]21C | 4 (≈ 4.21 µM) | 4 (≈ 4.21 µM) | 16 (≈ 16.8 µM) | 4 (≈ 4.21 µM) | 16 | 64 | 64 | 2 (≈ 2.1 µM) | 32 | 0.12 (≈ 0.126 µM) | 1 (≈ 1.05 µM)
CC[C@H]1OC(=O)[C@H](C)[C@@H](O[C@H]2C[C@@](C)(OC)[C@@H](OC(=O)NCCNC(=O)c3ccc(Br)cc3)[C@H](C)O2)[C@H](C)[C@@H](O[C@@H]2O[C@H](C)C[C@H](N(C)C)[C@H]2O)[C@](C)(O)C[C@@H](C)CN(C)[C@H](C)[C@H]2OC(=O)O[C@@]21C | 2 (≈ 1.92 µM) | 4 (≈ 3.83 µM) | 8 (≈ 7.66 µM) | 1 (≈ 0.958 µM) |  |  |  | 2 (≈ 1.92 µM) |  | 0.25 (≈ 0.239 µM) | 0.5 (≈ 0.479 µM)
CC[C@H]1OC(=O)[C@H](C)[C@@H](O[C@H]2C[C@@](C)(OC)[C@@H](OC(=O)NCCNC(=O)c3ccc(Cl)cc3Cl)[C@H](C)O2)[C@H](C)[C@@H](O[C@@H]2O[C@H](C)C[C@H](N(C)C)[C@H]2O)[C@](C)(O)C[C@@H](C)CN(C)[C@H](C)[C@H]2OC(=O)O[C@@]21C | 4 (≈ 3.87 µM) | 8 (≈ 7.74 µM) | 64 (≈ 61.9 µM) | 4 (≈ 3.87 µM) |  |  |  | 16 (≈ 15.5 µM) |  | 2 (≈ 1.93 µM) | 0.5 (≈ 0.484 µM)
CC[C@H]1OC(=O)[C@H](C)[C@@H](O[C@H]2C[C@@](C)(OC)[C@@H](OC(=O)NCCNC(=O)c3ccc([N+](=O)[O-])cc3)[C@H](C)O2)[C@H](C)[C@@H](O[C@@H]2O[C@H](C)C[C@H](N(C)C)[C@H]2O)[C@](C)(O)C[C@@H](C)CN(C)[C@H](C)[C@H]2OC(=O)O[C@@]21C | 1 (≈ 0.99 µM) | 16 (≈ 15.8 µM) | 64 (≈ 63.4 µM) | 4 (≈ 3.96 µM) |  |  |  | 4 (≈ 3.96 µM) |  | 0.5 (≈ 0.495 µM) | 0.5 (≈ 0.495 µM)
CC[C@H]1OC(=O)[C@H](C)[C@@H](O[C@H]2C[C@@](C)(OC)[C@@H](OC(=O)NCCNC(=O)c3cc([N+](=O)[O-])cc([N+](=O)[O-])c3)[C@H](C)O2)[C@H](C)[C@@H](O[C@@H]2O[C@H](C)C[C@H](N(C)C)[C@H]2O)[C@](C)(O)C[C@@H](C)CN(C)[C@H](C)[C@H]2OC(=O)O[C@@]21C | 1 (≈ 0.948 µM) | 8 (≈ 7.58 µM) | 8 (≈ 7.58 µM) | 16 (≈ 15.2 µM) | 32 | 128 | 64 | 1 (≈ 0.948 µM) | 32 | 0.12 (≈ 0.114 µM) | 0.12 (≈ 0.114 µM)
CC[C@H]1OC(=O)[C@H](C)[C@@H](O[C@H]2C[C@@](C)(OC)[C@@H](OC(=O)NCCCCNC(=O)c3ccc(OC)cc3)[C@H](C)O2)[C@H](C)[C@@H](O[C@@H]2O[C@H](C)C[C@H](N(C)C)[C@H]2O)[C@](C)(O)C[C@@H](C)CN(C)[C@H](C)[C@H]2OC(=O)O[C@@]21C | 1 (≈ 0.977 µM) | 32 (≈ 31.3 µM) | 16 (≈ 15.6 µM) | 4 (≈ 3.91 µM) |  |  |  | 4 (≈ 3.91 µM) |  | 0.25 (≈ 0.244 µM) | 1 (≈ 0.977 µM)
CC[C@H]1OC(=O)[C@H](C)[C@@H](O[C@H]2C[C@@](C)(OC)[C@@H](OC(=O)NCCCCNC(=O)c3ccccc3OC)[C@H](C)O2)[C@H](C)[C@@H](O[C@@H]2O[C@H](C)C[C@H](N(C)C)[C@H]2O)[C@](C)(O)C[C@@H](C)CN(C)[C@H](C)[C@H]2OC(=O)O[C@@]21C | 32 (≈ 31.3 µM) | 16 (≈ 15.6 µM) | 16 (≈ 15.6 µM) | 4 (≈ 3.91 µM) |  |  |  | 4 (≈ 3.91 µM) |  | 0.5 (≈ 0.489 µM) | 2 (≈ 1.95 µM)
CC[C@H]1OC(=O)[C@H](C)[C@@H](O[C@H]2C[C@@](C)(OC)[C@@H](OC(=O)NCCCCNC(=O)c3ccc(OC)c(OC)c3)[C@H](C)O2)[C@H](C)[C@@H](O[C@@H]2O[C@H](C)C[C@H](N(C)C)[C@H]2O)[C@](C)(O)C[C@@H](C)CN(C)[C@H](C)[C@H]2OC(=O)O[C@@]21C | 16 (≈ 15.2 µM) | 64 (≈ 60.8 µM) | 32 (≈ 30.4 µM) | 8 (≈ 7.6 µM) |  |  |  | 32 (≈ 30.4 µM) |  | 1 (≈ 0.949 µM) | 2 (≈ 1.9 µM)
CC[C@H]1OC(=O)[C@H](C)[C@@H](O[C@H]2C[C@@](C)(OC)[C@@H](OC(=O)NCCCCNC(=O)c3ccc(C)cc3)[C@H](C)O2)[C@H](C)[C@@H](O[C@@H]2O[C@H](C)C[C@H](N(C)C)[C@H]2O)[C@](C)(O)C[C@@H](C)CN(C)[C@H](C)[C@H]2OC(=O)O[C@@]21C | 64 (≈ 63.5 µM) | 32 (≈ 31.8 µM) | 16 (≈ 15.9 µM) | 4 (≈ 3.97 µM) |  |  |  | 8 (≈ 7.94 µM) |  | 1 (≈ 0.993 µM) | 0.5 (≈ 0.496 µM)
CC[C@H]1OC(=O)[C@H](C)[C@@H](O[C@H]2C[C@@](C)(OC)[C@@H](OC(=O)NCCCCNC(=O)c3ccc(F)cc3)[C@H](C)O2)[C@H](C)[C@@H](O[C@@H]2O[C@H](C)C[C@H](N(C)C)[C@H]2O)[C@](C)(O)C[C@@H](C)CN(C)[C@H](C)[C@H]2OC(=O)O[C@@]21C | 32 (≈ 31.6 µM) | 16 (≈ 15.8 µM) | 64 (≈ 63.3 µM) | 8 (≈ 7.91 µM) |  |  |  | 32 (≈ 31.6 µM) |  | 8 (≈ 7.91 µM) | 0.5 (≈ 0.494 µM)
CC[C@H]1OC(=O)[C@H](C)[C@@H](O[C@H]2C[C@@](C)(OC)[C@@H](OC(=O)NCCCCNC(=O)c3ccc(Cl)cc3)[C@H](C)O2)[C@H](C)[C@@H](O[C@@H]2O[C@H](C)C[C@H](N(C)C)[C@H]2O)[C@](C)(O)C[C@@H](C)CN(C)[C@H](C)[C@H]2OC(=O)O[C@@]21C | 64 (≈ 62.3 µM) | 8 (≈ 7.78 µM) | 16 (≈ 15.6 µM) | 4 (≈ 3.89 µM) |  |  |  | 8 (≈ 7.78 µM) |  | 1 (≈ 0.973 µM) | 0.5 (≈ 0.487 µM)
CC[C@H]1OC(=O)[C@H](C)[C@@H](O[C@H]2C[C@@](C)(OC)[C@@H](OC(=O)NCCCCNC(=O)c3ccc(Br)cc3)[C@H](C)O2)[C@H](C)[C@@H](O[C@@H]2O[C@H](C)C[C@H](N(C)C)[C@H]2O)[C@](C)(O)C[C@@H](C)CN(C)[C@H](C)[C@H]2OC(=O)O[C@@]21C | 32 (≈ 29.8 µM) | 32 (≈ 29.8 µM) | 16 (≈ 14.9 µM) | 8 (≈ 7.46 µM) |  |  |  | 8 (≈ 7.46 µM) |  | 1 (≈ 0.933 µM) | 1 (≈ 0.933 µM)
CC[C@H]1OC(=O)[C@H](C)[C@@H](O[C@H]2C[C@@](C)(OC)[C@@H](OC(=O)NCCCCNC(=O)c3ccc(Cl)cc3Cl)[C@H](C)O2)[C@H](C)[C@@H](O[C@@H]2O[C@H](C)C[C@H](N(C)C)[C@H]2O)[C@](C)(O)C[C@@H](C)CN(C)[C@H](C)[C@H]2OC(=O)O[C@@]21C | 64 (≈ 60.3 µM) | 16 (≈ 15.1 µM) | 16 (≈ 15.1 µM) | 2 (≈ 1.88 µM) |  |  |  | 4 (≈ 3.77 µM) |  | 1 (≈ 0.941 µM) | 1 (≈ 0.941 µM)
CC[C@H]1OC(=O)[C@H](C)[C@@H](O[C@H]2C[C@@](C)(OC)[C@@H](OC(=O)NCCCCNC(=O)c3ccc([N+](=O)[O-])cc3)[C@H](C)O2)[C@H](C)[C@@H](O[C@@H]2O[C@H](C)C[C@H](N(C)C)[C@H]2O)[C@](C)(O)C[C@@H](C)CN(C)[C@H](C)[C@H]2OC(=O)O[C@@]21C | 32 (≈ 30.8 µM) | 4 (≈ 3.85 µM) | 16 (≈ 15.4 µM) | 4 (≈ 3.85 µM) |  |  |  | 2 (≈ 1.93 µM) |  | 0.5 (≈ 0.482 µM) | 0.12 (≈ 0.116 µM)
CC[C@H]1OC(=O)[C@H](C)[C@@H](O[C@H]2C[C@@](C)(OC)[C@@H](OC(=O)NCCCCNC(=O)c3cc([N+](=O)[O-])cc([N+](=O)[O-])c3)[C@H](C)O2)[C@H](C)[C@@H](O[C@@H]2O[C@H](C)C[C@H](N(C)C)[C@H]2O)[C@](C)(O)C[C@@H](C)CN(C)[C@H](C)[C@H]2OC(=O)O[C@@]21C | 16 (≈ 14.8 µM) | 4 (≈ 3.69 µM) | 8 (≈ 7.39 µM) | 2 (≈ 1.85 µM) | 32 | 128 | 64 | 1 (≈ 0.923 µM) | 32 | 0.12 (≈ 0.111 µM) | 0.12 (≈ 0.111 µM)
CC[C@H]1OC(=O)[C@H](C)[C@@H](O[C@H]2C[C@@](C)(OC)[C@@H](O)[C@H](C)O2)[C@H](C)[C@@H](O[C@@H]2O[C@H](C)C[C@H](N(C)C)[C@H]2O)[C@](C)(O)C[C@@H](C)CN(C)[C@H](C)[C@@H](O)[C@]1(C)O [AZITHROMYCIN] | 0.12 (≈ 0.16 µM) | 1 (≈ 1.34 µM) | 256 (≈ 342 µM) | 0.25 (≈ 0.334 µM) |  |  |  | 128 (≈ 171 µM) |  | 4 (≈ 5.34 µM) | 0.03 (≈ 0.0401 µM)
CC[C@H]1OC(=O)[C@H](C)[C@@H](O[C@H]2C[C@@](C)(OC)[C@@H](O)[C@H](C)O2)[C@H](C)[C@@H](O[C@@H]2O[C@H](C)C[C@H](N(C)C)[C@H]2O)[C@](C)(O)C[C@@H](C)C(=O)[C@H](C)[C@@H](O)[C@]1(C)O [ERYTHROMYCIN] | 0.25 (≈ 0.341 µM) | 0.12 (≈ 0.164 µM) | 256 (≈ 349 µM) | 0.06 (≈ 0.0818 µM) |  |  |  | 128 (≈ 174 µM) |  | 8 (≈ 10.9 µM) | 0.03 (≈ 0.0409 µM)
